Data as given in patent publication US20180015017A1, “USE OF GLUCOSYLGLYCEROL” (Bitop AG, priority 2008, published 2018).

How the values were obtained:
[1] = tested on: SOD-2; assay: Expression of SOD-2 mRNA in fibroblasts (33P-labeled cDNA chip, phosphor imaging); type: cell-based, human; settings: for Upregulation of SOD-2: relative amount of hybridized targets (radioactivity, phosphor imaging): NHDF fibroblasts, 1-% (w/w) aqueous solution
Description: (§1) In these tests appropriate cell cultures were treated with a glucosylglycerol solution and the transcribed mRNA quantified. For this purpose the mRNA was first extracted to produce a ^33P labeled target with the help of a reverse transcriptase. Following this, these targets were applied to a cDNA chip and the radioactivity measured by means of the phosphor imaging method. The cDNA chip contained an array of the cDNAs of various proteins.
(§2) The investigations were carried out with epidermal keratinocytes (NHEK, normal human epidermal keratinocytes) and dermal fibroblasts (NHDF, normal human dermal fibroblasts). In the case of the keratinocytes a 0.5-% (w/w) and in the case of the fibroblasts a 1-% (w/w) aqueous glucosylglycerol solution was used for the treatment.
Fibroblasts: DMEM (Invitrogen 21969035), blended with L-glutamine 2 mM (Invitrogen 25030024), Penicillin 50 Ul/ml/Streptomycin 50 μg/ml (Invitrogen 15070063), fetal calf serum 10% (FCS, Invitrogen 10270098).
(§3) Culturing took place for a period of 24 and 96 hours. At the end of the incubation period the cells were washed with PBS solution (Invitrogen 14190094).
(§4) The extraction of mRNA of each culture was achieved using TriReagent as per a standard protocol. The relevant cDNAs with ^33P-labeled targets was produced by reverse transcription of mRNA using [α^33P]-dATP and oligodT.
(§5) The labeled cDNA targets were hybridized to the specific cDNA probes covalently fixed to minichips. After thorough washing the relative amount of the hybridized targets was determined by means of the phosphor imaging method. This analysis was performed by measuring the radioactivity by means of a “Cyclone” Phosphor Imager (Packard Instruments; 72 hours exposure time) and using the ImageQuant TL-Software (Amersham Biosiences).

[2] = tested on: SOD-1; assay: Expression of SOD-1 mRNA in keratinocytes (33P-labeled cDNA chip, phosphor imaging); type: cell-based, human; settings: for Upregulation of the cytosolic SOD-1: relative amount of hybridized targets (radioactivity, phosphor imaging): NHEK keratinocytes, 0.5-% (w/w) aqueous solution; for increase of the expression of SOD-1: keratinocytes, 0.5-% glucosylglycerol solution
Description: as §1, §2
Keratinocytes: Keratinocyte-SFM (Invitrogen 17005-034) blended with epidermal growth factor (EGF) 0.25 ng/ml, pituitary extract (PE) 25 μg/ml (Invitrogen 3700015), Gentamycin […] (Sigma G1397).
as §3, §4, §5

For OCC(CO)O[C@H]1O[C@H](CO)[C@@H](O)[C@H](O)[C@H]1O [glucosylglycerol, 2-O-α-D-glucosylglycerol], the “Upregulation of SOD-2: relative amount of hybridized targets (radioactivity, phosphor imaging)” value ([1]; 24 h, control 16.5) was 419, the “Upregulation of SOD-2: relative amount of hybridized targets (radioactivity, phosphor imaging)” value ([1]; 96 h, control 9.1) was 313 and the “higher expression of SOD-2” value ([1]; fibroblasts, 1-% glucosylglycerol solution, within 24 hours) was 25.4 times. The “increase of expression of SOD-2” value ([1]; fibroblasts, 1-% glucosylglycerol solution, within 96 hours) was 34.4 fold, the “Upregulation of the cytosolic SOD-1: relative amount of hybridized targets (radioactivity, phosphor imaging)” value ([2]; 24 h, control 18.2) was 85 and the “Upregulation of the cytosolic SOD-1: relative amount of hybridized targets (radioactivity, phosphor imaging)” value ([2]; 96 h, control 9.3) was 182. The “increase of the expression of SOD-1” value ([2]; within 24 hours) was 4.7 times and the “increase of the expression of SOD-1” value ([2]; within 96 hours) was 19.6 times.
